In patent US7501423B2, “Tubulin inhibitor and process for its preparation” (Wyeth, priority 2005, dated 2009):
Where a name gives a salt, the structure may show the parent alone.

Experiment: hygroscopic character of the salt forms
Type: physicochemical
Conditions: solid salt form; no method or figures given

Compound	hygroscopicity (hygroscopic character of the salt)
6-chloro-5-{2,6-difluoro-4-[3-(methylamino)propoxy]phenyl}-2-pyrazin-2-yl-N-[(1S)-2,2,2-trifluoro-1-methylethyl]pyrimidin-4-amine hemifumarate	essentially avoids the disadvantage of the hygroscopic character
CNCCCOc1cc(F)c(-c2c(Cl)nc(-c3cnccn3)nc2N[C@@H](C)C(F)(F)F)c(F)c1 [hydrochloride, 6-chloro-5-{2,6-difluoro-4-[3-(methylamino)propoxy]phenyl}-2-pyrazin-2-yl-N-[(1S)-2,2,2-trifluoro-1-methylethyl]pyrimidin-4-amine]	very hygroscopic
